In ChEMBL document CHEMBL3045444, “Synthesis of Stereoisomers of Ipconazole and Their Fungicidal and Plant Growth Inhibitory Activities” (J Pestic Sci, 1997):
Values after ≈ are worked out from the molar mass of the structure shown.

Columns and labels:
Fusarium fujikuroi [1] = experiment: Antifungal activity against Fusarium fujikuroi infected in rice plant assessed as control of bakanae disease at 18 ug/ml treated as seed treatment after 2 weeks; assay type: functional
Pyricularia oryzae = experiment: Antifungal activity against Magnaporthe oryzae after 3 days; assay type: functional, organism-based
Fusarium fujikuroi [2] = experiment: Antifungal activity against Fusarium fujikuroi infected in rice plant assessed as control of bakanae disease at 75 ug/ml treated as seed treatment after 2 weeks; assay type: functional
Oryza sativa = experiment: Growth inhibition of Oryza sativa (rice) assessed as growth rate by measuring first sheath length at 250 ug/ml treated as seed treatment 24 hr before emergence measured after 10 days relative to control; assay type: organism-based; set-up: scale not given: the % may be the effect or the level left; details: in vivo, 240 h
Bipolaris oryzae [3] = experiment: Antifungal activity against Bipolaris oryzae infected in fifth-leaf stage of rice plant assessed as control of brown spot disease at 150 ug/ml treated as foliar application after 6 days; assay type: functional
Fusarium fujikuroi [4] = experiment: Antifungal activity against Fusarium fujikuroi after 3 days; assay type: functional, organism-based
Bipolaris oryzae [5] = experiment: Antifungal activity against Bipolaris oryzae infected in fifth-leaf stage of rice plant assessed as control of brown spot disease at 38 ug/ml treated as foliar application after 6 days; assay type: functional
Fusarium fujikuroi [6] = experiment: Antifungal activity against Fusarium fujikuroi infected in rice plant assessed as control of bakanae disease at 300 ug/ml treated as seed treatment after 2 weeks; assay type: functional
Bipolaris oryzae [7] = experiment: Antifungal activity against Bipolaris oryzae infected in fifth-leaf stage of rice plant assessed as control of brown spot disease at 9 ug/ml treated as foliar application after 6 days; assay type: functional
Bipolaris oryzae [8] = experiment: Antifungal activity against Bipolaris oryzae after 3 days; assay type: functional, organism-based
[9] = Pyricularia oryzae, 72 h, read-out: EC50
[10] = Fusarium fujikuroi, 72 h, read-out: EC50
[11] = Bipolaris oryzae, 72 h, read-out: EC50

| Compound | Activity (Fusarium fujikuroi [1]) [%] | EC50 (Pyricularia oryzae; [9]) [µg/mL] | Activity (Fusarium fujikuroi [2]) [%] | Activity (Oryza sativa) [%] | Activity (Bipolaris oryzae [3]) [%] | EC50 (Fusarium fujikuroi [4]; [10]) [µg/mL] | Activity (Bipolaris oryzae [5]) [%] | Activity (Fusarium fujikuroi [6]) [%] | Activity (Bipolaris oryzae [7]) [%] | EC50 (Bipolaris oryzae [8]; [11]) [µg/mL] | EC50 (Pyricularia oryzae) [µg/mL] | EC50 (Fusarium fujikuroi [4]) [µg/mL] | EC50 (Bipolaris oryzae [8]) [µg/mL] |
| --- | --- | --- | --- | --- | --- | --- | --- | --- | --- | --- | --- | --- | --- |
| CC(C)[C@H]1CC[C@@H](Cc2ccc(Cl)cc2)[C@@]1(O)Cn1cncn1 (racemic) | 9.7 | 0.04 (≈ 0.12 µM) | 76.8 | 82.5 | 100 | 0.09 (≈ 0.27 µM) | 74 | 97.5 | 53 | 0.5 (≈ 1.5 µM) |  |  |  |
| CC(C)[C@@H]1CC[C@H](Cc2ccc(Cl)cc2)[C@@]1(O)Cn1cncn1 (racemic) | 61.2 |  | 96.5 | 98.3 | 100 |  | 84 | 98.7 | 86 |  | 0.08 (≈ 0.24 µM) | 0.05 (≈ 0.15 µM) | 0.4 (≈ 1.2 µM) |
| CC(C)[C@H]1CC[C@H](Cc2ccc(Cl)cc2)[C@@]1(O)Cn1cncn1 |  |  |  |  |  | 0.03 (≈ 0.0899 µM) |  |  |  | 0.2 (≈ 0.599 µM) | 0.01 (≈ 0.03 µM) |  |  |
| CC(C)[C@@H]1CC[C@@H](Cc2ccc(Cl)cc2)[C@@]1(O)Cn1cncn1 (racemic) | 0 | 0.5 (≈ 1.5 µM) | 59.1 | 91.7 | 92 | 0.9 (≈ 2.7 µM) | 49 | 95.2 | 25 | 1 (≈ 3 µM) |  |  |  |
| CC(C)[C@H]1CC[C@@H](Cc2ccc(Cl)cc2)[C@]1(O)Cn1cncn1 |  | 1 (≈ 3 µM) |  |  |  | 10 (≈ 30 µM) |  |  |  | 6 (≈ 18 µM) |  |  |  |
| CC(C)[C@@H]1CC[C@H](Cc2ccc(Cl)cc2)[C@@]1(O)Cn1cncn1 |  | 0.04 (≈ 0.12 µM) |  |  |  | 0.03 (≈ 0.0899 µM) |  |  |  | 0.2 (≈ 0.599 µM) |  |  |  |
| CC(C)[C@@H]1CC[C@@H](Cc2ccc(Cl)cc2)[C@]1(O)Cn1cncn1 |  | 0.7 (≈ 2.1 µM) |  |  |  | 6 (≈ 18 µM) |  |  |  | 3 (≈ 8.99 µM) |  |  |  |
| CC(C)[C@H]1CC[C@H](Cc2ccc(Cl)cc2)[C@@]1(O)Cn1cncn1 (racemic) | 52.1 |  | 97.5 | 90.7 | 100 |  | 98 | 99.6 | 71 |  | 0.03 (≈ 0.0899 µM) | 0.06 (≈ 0.18 µM) | 0.4 (≈ 1.2 µM) |
